Results taken from patent US11896678B2, “Compositions and methods for treatment of peroxisome proliferator-activated receptor gamma (PPARG) activated cancer” (THE BROAD INSTITUTE, INC., priority 2017, dated 2024).

Legend:
[1] = tested on: FABP4 expression; experiment: Immunoblot of FABP4 in bladder cancer cell lines; assay type: cell-based, human; conditions: panel of bladder cancer cell lines
Protocol: Western Blot Analysis: Western blots were performed using standard protocols with semi-dry transfer Trans-Blot® SD (Bio-Rad Hercules, CA), Li-Cor Odyssey Blocking buffer, and imaging with LiCor Odyssey Imaging System (LI-COR Lincoln, NE). Briefly, cells were grown in 6-well plates and harvested using Complete Lysis-M with protease and phosphatase inhibitors (Roche Applied Science). Western blot analyses were performed using standard protocols with semi-dry transfer Trans-Blot SD (Bio-Rad), LI-COR Odyssey Blocking buffer, and imaging with LI-COR Odyssey Imaging System (LI-COR). The anti-PPARG C26H12, anti-PPARG 81B8, anti-FABP4 D25B3, and anti-CEACAM5 CB30 antibodies were obtained from Cell Signaling Technology. The anti-ACSL5 ab57210 and anti-HMCGS2 EPR8642 antibodies were obtained from Abcam. The anti-VCL (vinculin) V9264 antibody was obtained from Sigma-Aldrich. All primary antibodies were tested at 1:1,000 dilutions, with the exception of anti-VCL, which was tested at a 1:5,000 dilution. Secondary goat anti-mouse 926-68020, and goat-anti-rabbit 926-32211 antibodies were obtained from LI-COR Biosciences and used at 1:15,000 dilutions.

[2] = tested on: PPARG-activated bladder cancer cell lines; experiment: Proliferation assays in PPARG-activated bladder cancer cell lines; assay type: cell-based, human; conditions: 100 nM-500 nM
Protocol: A panel of bladder cancer cell lines with PPARG modulators in colony formation assays was then tested (FIG. 10), kinetic proliferation assays (IncuCyte Zoom; Essen Bioscience) using cell lines treated with a single concentration of compound (100 nM-500 nM), and end-point dose-response assays (CellTiter Glo or CyQuant).
This assay was expanded to include an additional 8 representative bladder cancer cell lines, including cell lines with PPARG amplification, RXRA p.S427F mutation, activated gene signature, and control cell lines with low level expression of PPARG and target genes. […] Representative data for the UM-UC-9 cell line are shown in FIG. 6B, and is tabulated for the tested bladder cancer cell lines in Table 1. […] This significant (P<0.01) preferential sensitivity to PPARG inverse-agonists, but not antagonists, is maintained across all of the PPARG-activated cell lines in the panel, including the RXRA p.S427F cell line, HT-1197 (41), the PPARG-amplified cell lines, 5637 and UM-UC-9, and the PPARG activation gene signature cell lines Cal29, UM-UC-1, and RT112/84 (FIG. 12). […] Similar results were obtained with these cell lines in parallel studies using clonogenic assays to quantify colony-forming ability (FIG. 10).
Proliferation Assays: To enable cell-counting experiments, cell lines were transduced with a lentiviral vector encoding nuclear-targeted GFP, TagGFP2-H2B (Evrogen), and stable pools generated following selection for puromycin resistance. Cell lines were maintained for at least 7 days following selection prior to expansion and seeding into 96- or 384-well plates for further analysis. For kinetic proliferation assays, 96-well plates (n 1% 4 per condition) were imaged and counted every two hours using IncuCyte Zoom (Essen BioScience). Media and compounds were replaced approximately every 3-4 days. For endpoint assays to measure dose-response, cells were plated in 384-well plates, dosed with compound, and upon reaching approximately 70% to 90% confluence in control wells, cells were either counted using fluorescence imaging (Incu-Cyte Zoom) or incubated with CyQuant (Thermo Fisher) at the indicated time and plates were read with a fluorescent plate reader.

[3] = tested on: PPARG target gene expression in UM-UC-9 cells; experiment: RNA sequencing of UM-UC-9 cells after 7 days dosing; assay type: cell-based, human; conditions: 500 nmol/L
Protocol: Next, the effects of long-term dosing on the transcriptional profile of the PPARG-amplified cell line, UMUC-9, were evaluated. Briefly, UM-UC-9 cells were treated for 7 days with various PPARG modulators dosed at 500 nmol/L and gene expression was analyzed using RNA sequencing. […] Genes that were more abundantly expressed upon treatment with inverse-agonists included ALPP, SPINK4, and ALDH1A3 (FIG. 5). […] In summary, the in vitro pharmacological properties of known PPARG modulators have been characterized and two distinct chemotypes with bona-fide inverse-agonist activity in PPARG-activated bladder cancer cells were identified.
RNAseq analysis: RNA was isolated using RNEasy (Qiagen) and an RNAseq library was prepared using NEBNext Ultra Directional RNA Library Prep Kit for Illumina and NEBNext Multiplex Oligos for Illumina (New England BioLabs). RNAseq sequencing was performed using an Illumina MiSeq instrument according to the manufacturers protocol. Sequence data was analyzed using Firehose (Broad Institute, Cambridge MA) to map transcripts and calculate RPKM (SW780 cDNA expression) or TPM (UM-UC-9).
For UM-UC-9 RNAseq experiment, the resulting reads were used to calculate transcript abundance in units of TPM (transcripts per million) (18), which were then adjusted using TMM normalization (19) for comparison. […]

[4] = tested on: PPARG-activated pancreatic and colorectal cancer cell lines; experiment: Kinetic proliferation assay in pancreatic and colorectal cancer cell lines; assay type: cell-based; conditions: 500 nM
From the text: To enable cell-counting, cell lines were transduced with a lentiviral vector encoding nuclear-targeted GFP (TagGFP2-H2B), and stable pools generated following selection for puromycin-resistance. Cell lines were maintained for at least 7 days following selection prior to expansion and seeding into 96-well plates for further analysis. For kinetic proliferation assays, 96-well plates were imaged in phase-contrast and green fluorescence mode every two hours using IncuCyte Zoom (Essen BioScience, Ann Arbor MI). Using IncuCyte software, the number of fluorescent nuclei were counted to monitor quantitative changes in cell number over time. Media and compounds were replaced approximately every 3-4 days.
DMSO treatment was also included as a vehicle control.

O=C(Nc1ccccc1)c1cc([N+](=O)[O-])ccc1Cl [GW9662]
expression of FABP4 [1]: not
sensitivity of cell lines [2]: not sensitive
hierarchical clustering of gene expression signatures [3]: cluster with vehicle-treated controls
sensitivity of cell lines [4]: not sensitive
